Test results reported in article PMC11219871, “Epigenetic-based differentiation therapy for Acute Myeloid Leukemia” (Nature Communications, 2024).
In brackets after ≈: the same amount, converted by molar mass. Several values for one entry are separate records, joined by “and”; a condition that tells them apart may be missing. Equal values may be shown once.

What was measured:
[1] = Kinetic solubility; format: physicochemical; details: PBS buffer, aqueous buffer, kinetic from dmso stock, pH 7.4, PBS
Procedure: This study was conducted at Wuxi (http://www.wuxi.com/). Stock solutions of test compounds (10 mM; 100% DMSO) and 490 μL of PBS buffer at pH = 7.4 were added in the lower chamber of Whatman’s Mini-Uniprep vials. After vortex mixing for ≥2 min, the vials were shaken at 800 rpm for 24 h and finally centrifuged at 1520 g for 20 min. The concentration of the filtrate was quantified by HPLC (calibration curve from 1.5624 μM to 200 μM). Amiodarone hydrochloride, carbamazepine and chloramphenicol were used as controls.

[2] = molecular target: T1, SETD2 (Homo sapiens, UniProt Q9BYW2); assay: Epigenetic panel (BPS Bioscience); format: biochemical
T1 construct: purchased BPS Bioscience; Eurofins (HDAC4, 5, 7-11)
Description: (§1) The selectivity of CM-444 and CM-1758 against other epigenetic targets, including histone demethylase (JMJD2A, JMJD2B, JMJD2C, JMJD2D, JMJD2E, JMJD3, JMJD1A, LSD1, Jarid1A, Jarid1B, Jarid1C, FBXL10, FBXL11, JHDM1D, JMJD1B, PHF8, LSD2 and UTX); histone acetyltransferases (GCN5, P300); histone methyltransferases (G9a, GLP, MLL1, SET7/9, SUV39H1, SUV39H2, PRMT1, PRMT3, PRMT4, PRMT5, PRMT6, PRMT8, PRMT9, NSD1, NSD2, EZH1, EZH2, SETDB1, SETD2, SET8, SUV4-20H1, SMYD2, SMYD3, DOT1L, EZH2 (A677G), EZH2 (A677G), EZH2 (A738T), EZH2 (Y641S), EZH2 (P132S), EZH2 (Y641C), EZH2 (Y641F), EZH2 (Y641H), EZH2 (Y641N)); bromodomains (ATAD2B, ATAD2A, BRD1, BRD9, BPTF/FALZ, CeCR2, BRPF3, BRD3 (BD1 + BD2), BAZ2B, WDR9, TAF1 (BD2), TAF1L (BD2), TAF1L (BD1 + BD2), BRD2 (BD1), BRD2 (BD2), BRD2 (BD1 + BD2), BRD3 (BD1), BRD3 (BD2), BRD4 (BD1), BRD4 (BD2), BRD4 (BD1 + BD2), BRDT (BD1), BRDT (BD1 + BD2), CREBBP, SMARCA2A, SMARCA4/BRG1); DNA methyltranferases (DNMT1, DNMT3A/3L and DNMT3B/3L), and sirtuin histone deacetylases (SIRT1, SIRT2, SIRT3, SIRT5 and SIRT6), were determined by BPS Bioscience (http://www.bpsbioscience.com/index.ph). Binding experiments were performed in duplicate at a concentration of 10 μM.

[3] = molecular target: T2, SMYD3 (Homo sapiens, UniProt Q9H7B4); assay: Epigenetic panel (BPS Bioscience); format: biochemical
T2 construct: purchased BPS Bioscience; Eurofins (HDAC4, 5, 7-11)
Description: as §1

[4] = molecular target: T3, MLL1 (Homo sapiens, UniProt Q03164); assay: Epigenetic panel (BPS Bioscience); format: biochemical
T3 construct: purchased BPS Bioscience; Eurofins (HDAC4, 5, 7-11)
Description: as §1

[5] = molecular target: T4, SUV39H2 (Homo sapiens, UniProt Q9H5I1); assay: Epigenetic panel (BPS Bioscience); format: biochemical
T4 construct: purchased BPS Bioscience; Eurofins (HDAC4, 5, 7-11)
Description: as §1

[6] = molecular target: T5, JHDM1D (Homo sapiens, UniProt Q6ZMT4); assay: Epigenetic panel (BPS Bioscience); format: biochemical
T5 construct: purchased BPS Bioscience; Eurofins (HDAC4, 5, 7-11)
Description: as §1

[7] = test system: HL-60, ML-2, MOLM-13 and MV4-11; assay: γ-H2AX immunofluorescence (DNA damage); format: cell-based; details: daily treatment 48 hours, four AML cell lines
Procedure: authors should analyze this e.g by gH2AX immunofluorescence staining.
As positive control, HL-60 cells irradiated with an acute dose of 30 J/m2 UV for 2 minutes were
(see Reviewer Figure 22).

[8] = test system: MOLM-13 i.v. in BALB/cA Rag2-/-γc-/- mice; assay: Intravenous xenograft model (survival, CD11b in blood, body weight); format: in vivo, mouse; details: for overall survival (OS): MOLM-13 i.v., 10 mg/kg i.p., 5 days on/2 off, 2 weeks; for Body weight: intravenous MOLM-13 AML mouse model, individual mice
Procedure: (§2) The human AML MV4-11 and MOLM-13 xenograft mice models were generated by intravenous (i.v.) injection of 10 × 10^6 (MV4-11) or 1 × 10^4 (MOLM-13) cells diluted in 100 µL of saline solution in the tail vein of a 6-8-week-old female BALB/cA Rag2^−/−γc^−/− mice (n = 10). Treatment started 7 or 1 day after MV4-11 or MOLM-13 cells injection, respectively. MV4-11 and MOLM-13 mice were treated with i.p. 10 mg/kg of CM-444 and CM-1758 during 5 consecutive days followed by 2 resting days for 7 and 2 weeks, respectively. The control group received only 80% saline solution, 10% DMSO and 10% Tween 20 (diluents of CM-444 and CM-1758). The mice weight was controlled and remained stable during the treatment. Statistical results were calculated using the statistical software Medcalc. CD11b levels in blood samples from an intravenous MV4-11 mice model were measured by flow cytometry, as described above.

[9] = test system: MV4-11 i.v. in BALB/cA Rag2-/-γc-/- mice; assay: as above; format: in vivo, mouse; details: for CD11b in blood samples / overall survival (OS): MV4-11 i.v., 10 mg/kg i.p.; for overall survival (OS): 5 days on/2 off, 7 weeks; for body weight of mice: intravenous MV4-11 AML mouse model, individual mice; for CD11b levels in blood samples: mice engrafted intravenously with MV4-11 cells, individual mice (Fig 3E); for Survival time (Kaplan-Meier, event = 1): mice engrafted with MV4-11 cells intravenously, individual mice (Fig 3D)
Procedure: as §2

T4 sequence (Q9H5I1 whole entry): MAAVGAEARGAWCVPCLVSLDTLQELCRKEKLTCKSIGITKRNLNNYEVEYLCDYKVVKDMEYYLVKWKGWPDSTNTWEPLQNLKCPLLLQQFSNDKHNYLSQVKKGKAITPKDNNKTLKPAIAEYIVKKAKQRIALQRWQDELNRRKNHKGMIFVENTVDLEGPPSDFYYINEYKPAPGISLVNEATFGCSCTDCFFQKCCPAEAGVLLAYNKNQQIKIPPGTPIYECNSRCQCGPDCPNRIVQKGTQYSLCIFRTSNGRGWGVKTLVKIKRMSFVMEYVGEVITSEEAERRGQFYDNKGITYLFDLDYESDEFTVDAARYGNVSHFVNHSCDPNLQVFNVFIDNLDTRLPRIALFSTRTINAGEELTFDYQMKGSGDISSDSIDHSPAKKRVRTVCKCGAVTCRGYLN
T5 sequence (Q6ZMT4 whole entry): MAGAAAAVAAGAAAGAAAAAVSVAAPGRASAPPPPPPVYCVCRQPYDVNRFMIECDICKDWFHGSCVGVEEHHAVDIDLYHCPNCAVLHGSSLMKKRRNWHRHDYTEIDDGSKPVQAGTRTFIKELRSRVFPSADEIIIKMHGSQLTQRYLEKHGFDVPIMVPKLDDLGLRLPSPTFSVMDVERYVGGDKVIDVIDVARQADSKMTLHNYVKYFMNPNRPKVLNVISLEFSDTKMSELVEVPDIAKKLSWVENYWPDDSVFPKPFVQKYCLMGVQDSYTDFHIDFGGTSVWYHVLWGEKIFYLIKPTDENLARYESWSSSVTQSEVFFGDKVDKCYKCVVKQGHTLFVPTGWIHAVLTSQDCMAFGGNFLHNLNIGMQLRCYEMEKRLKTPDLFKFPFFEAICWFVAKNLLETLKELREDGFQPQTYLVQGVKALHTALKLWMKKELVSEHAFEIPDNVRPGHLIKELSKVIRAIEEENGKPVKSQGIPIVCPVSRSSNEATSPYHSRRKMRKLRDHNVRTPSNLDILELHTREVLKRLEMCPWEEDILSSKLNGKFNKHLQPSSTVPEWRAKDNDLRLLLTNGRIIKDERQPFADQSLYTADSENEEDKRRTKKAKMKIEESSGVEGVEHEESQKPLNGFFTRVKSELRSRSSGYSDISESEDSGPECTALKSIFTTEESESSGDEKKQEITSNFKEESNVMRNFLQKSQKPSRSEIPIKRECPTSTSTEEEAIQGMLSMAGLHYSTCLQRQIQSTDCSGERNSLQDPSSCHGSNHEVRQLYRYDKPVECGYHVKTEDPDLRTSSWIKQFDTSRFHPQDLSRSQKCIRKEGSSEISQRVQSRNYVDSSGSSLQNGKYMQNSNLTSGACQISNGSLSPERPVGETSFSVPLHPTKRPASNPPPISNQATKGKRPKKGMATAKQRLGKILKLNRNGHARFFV
T2 sequence (Q9H7B4 whole entry): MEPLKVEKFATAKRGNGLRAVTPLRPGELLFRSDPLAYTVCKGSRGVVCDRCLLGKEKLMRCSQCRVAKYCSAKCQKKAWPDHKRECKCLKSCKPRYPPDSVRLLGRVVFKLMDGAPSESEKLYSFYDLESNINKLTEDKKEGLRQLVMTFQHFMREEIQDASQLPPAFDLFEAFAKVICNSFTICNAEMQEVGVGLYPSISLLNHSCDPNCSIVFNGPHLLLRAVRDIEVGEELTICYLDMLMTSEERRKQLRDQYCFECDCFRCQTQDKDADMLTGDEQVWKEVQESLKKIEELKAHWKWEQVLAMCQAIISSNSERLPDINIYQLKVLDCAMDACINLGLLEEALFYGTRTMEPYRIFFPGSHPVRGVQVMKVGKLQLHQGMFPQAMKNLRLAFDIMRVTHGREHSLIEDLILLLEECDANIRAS
T1 sequence (Q9BYW2 whole entry): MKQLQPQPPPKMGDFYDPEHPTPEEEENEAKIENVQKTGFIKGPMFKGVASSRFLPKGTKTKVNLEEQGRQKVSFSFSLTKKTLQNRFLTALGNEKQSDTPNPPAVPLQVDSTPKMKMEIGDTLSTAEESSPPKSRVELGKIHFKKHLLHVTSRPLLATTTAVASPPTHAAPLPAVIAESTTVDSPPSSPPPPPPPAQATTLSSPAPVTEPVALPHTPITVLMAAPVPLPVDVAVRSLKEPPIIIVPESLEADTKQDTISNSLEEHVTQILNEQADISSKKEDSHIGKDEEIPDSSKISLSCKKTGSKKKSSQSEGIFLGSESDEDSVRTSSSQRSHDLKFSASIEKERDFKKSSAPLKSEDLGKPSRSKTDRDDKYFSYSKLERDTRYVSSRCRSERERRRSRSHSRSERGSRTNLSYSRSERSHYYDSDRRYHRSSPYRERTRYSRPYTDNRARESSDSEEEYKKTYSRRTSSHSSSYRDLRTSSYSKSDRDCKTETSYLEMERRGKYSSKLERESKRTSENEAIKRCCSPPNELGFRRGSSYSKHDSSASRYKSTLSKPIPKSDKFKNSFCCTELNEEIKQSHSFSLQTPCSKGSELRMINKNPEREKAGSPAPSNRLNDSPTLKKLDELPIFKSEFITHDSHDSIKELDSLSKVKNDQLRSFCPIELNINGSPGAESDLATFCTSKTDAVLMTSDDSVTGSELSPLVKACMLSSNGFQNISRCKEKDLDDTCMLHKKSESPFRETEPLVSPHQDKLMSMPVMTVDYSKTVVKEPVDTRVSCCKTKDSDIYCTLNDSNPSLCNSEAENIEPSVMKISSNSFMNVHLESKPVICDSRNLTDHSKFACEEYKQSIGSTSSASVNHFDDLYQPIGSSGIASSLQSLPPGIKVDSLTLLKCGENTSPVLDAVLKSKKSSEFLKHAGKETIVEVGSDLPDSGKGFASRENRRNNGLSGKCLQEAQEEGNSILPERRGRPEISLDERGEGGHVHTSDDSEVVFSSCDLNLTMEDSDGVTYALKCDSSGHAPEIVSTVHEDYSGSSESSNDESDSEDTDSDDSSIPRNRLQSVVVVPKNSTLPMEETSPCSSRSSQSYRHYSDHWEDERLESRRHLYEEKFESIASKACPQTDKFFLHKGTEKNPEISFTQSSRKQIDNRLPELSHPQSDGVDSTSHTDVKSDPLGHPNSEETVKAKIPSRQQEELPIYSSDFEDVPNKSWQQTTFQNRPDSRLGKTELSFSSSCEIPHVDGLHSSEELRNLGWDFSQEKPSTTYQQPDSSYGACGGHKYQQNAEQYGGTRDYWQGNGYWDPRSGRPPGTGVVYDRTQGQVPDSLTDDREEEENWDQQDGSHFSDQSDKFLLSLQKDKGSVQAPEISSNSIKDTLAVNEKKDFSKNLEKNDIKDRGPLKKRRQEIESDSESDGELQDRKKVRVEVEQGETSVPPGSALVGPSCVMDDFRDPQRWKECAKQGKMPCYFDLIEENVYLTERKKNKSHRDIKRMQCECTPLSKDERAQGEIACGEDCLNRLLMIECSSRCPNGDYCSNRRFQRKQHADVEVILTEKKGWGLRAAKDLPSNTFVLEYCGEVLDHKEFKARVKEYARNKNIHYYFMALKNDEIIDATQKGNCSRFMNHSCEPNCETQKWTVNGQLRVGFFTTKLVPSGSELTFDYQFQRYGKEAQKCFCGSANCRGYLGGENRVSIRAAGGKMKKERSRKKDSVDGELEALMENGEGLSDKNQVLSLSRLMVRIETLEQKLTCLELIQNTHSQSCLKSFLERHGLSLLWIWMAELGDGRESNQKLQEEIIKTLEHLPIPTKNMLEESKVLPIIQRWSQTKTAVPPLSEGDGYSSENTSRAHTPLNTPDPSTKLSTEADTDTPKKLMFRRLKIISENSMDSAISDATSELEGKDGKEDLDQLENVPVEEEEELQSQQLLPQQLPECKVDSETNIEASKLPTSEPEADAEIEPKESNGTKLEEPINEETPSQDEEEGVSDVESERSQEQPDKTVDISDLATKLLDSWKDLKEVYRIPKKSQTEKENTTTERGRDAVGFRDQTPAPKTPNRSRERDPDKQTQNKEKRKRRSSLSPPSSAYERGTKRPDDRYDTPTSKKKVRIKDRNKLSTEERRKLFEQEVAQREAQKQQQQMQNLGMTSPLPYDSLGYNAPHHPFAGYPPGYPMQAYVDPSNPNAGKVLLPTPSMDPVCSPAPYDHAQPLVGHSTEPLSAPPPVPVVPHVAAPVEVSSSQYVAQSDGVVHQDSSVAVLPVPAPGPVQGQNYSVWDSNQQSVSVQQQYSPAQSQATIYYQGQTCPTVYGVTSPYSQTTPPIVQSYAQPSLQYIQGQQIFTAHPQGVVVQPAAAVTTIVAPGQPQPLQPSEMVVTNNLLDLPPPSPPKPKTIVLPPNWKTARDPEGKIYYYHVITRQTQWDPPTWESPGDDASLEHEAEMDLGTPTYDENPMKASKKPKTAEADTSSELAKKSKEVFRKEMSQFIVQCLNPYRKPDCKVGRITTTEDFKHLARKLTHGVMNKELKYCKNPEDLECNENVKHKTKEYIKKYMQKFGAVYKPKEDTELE

Compound | solubility at 24 h [1] [mg/mL] | inhibition at 10 µM [2] [%] | inhibition at 10 µM [3] [%] | inhibition at 10 µM [4] [%] | inhibition at 10 µM [5] [%] | inhibition at 10 µM [6] [%] | DNA damage (γ-H2AX) [7] | overall survival (OS) [8] | Body weight ([8]; day 4) | Body weight ([8]; day 11) | Body weight ([8]; day 13) | CD11b in blood samples [9] | overall survival (OS) [9] | body weight of mice ([9]; day 25) | body weight of mice ([9]; day 28) | body weight of mice ([9]; day 30) | body weight of mice ([9]; day 31) | body weight of mice ([9]; day 37) | CD11b levels in blood samples [9] | Survival time (Kaplan-Meier, event = 1) [9] | further results
COc1cc2nc(-c3ccc(C)o3)cc(NCC3CCN(c4ncc(C(=O)NO)cn4)CC3)c2cc1OC [CM-444, 2-[4-[[[6,7-dimethoxy-2-(5-methyl-2-furyl)-4-quinolyl]amino]methyl]-1-piperidyl]pyrimidine-5-carbohydroxamic acid] | 0.118 (≈ 227 µM) | 0 | 35 | 0 | 0 | 4 | do not induced DNA damage | not having observed an increase in OS | 22.8 and 24 (2×) and 25 and 23.7 and 22.6 (2×) and 23.6 and 23 and 25.3 | 21.7 and 22.4 and 23 and 24.4 and 22.3 and 22.8 and 22.2 (2×) and 21.4 and 24.5 | 22.1 (2×) and 23 and 23.1 and 24 and 22.7 and 22.9 and 22.3 and 21.2 and 24.8 | statistically significant increase in CD11b | increased overall survival | 26.4 and 24.4 and 24.5 and 23.9 and 24.8 (2×) and 25.1 (2×) and 23.7 and 27.9 and 26.1 and 24.2 | 25.9 and 24.3 and 24.1 (2×) and 22 and 24.6 (2×) and 25.3 and 25.1 and 27.9 and 26.2 and 24.2 | 26.4 and 24 (2×) and 23.8 and 20.4 and 24.3 and 25 and 24.7 and 24.2 and 27.6 and 25.5 and 24.5 | 25.8 and 24.8 (2×) and 24.4 and 22.9 and 25.7 and 24.5 and 23.7 and 27.3 and 24.6 and 24.7 | 26.5 and 24.6 and 24.4 and 25 (3×) and 27.2 (2×) and 27.7 and 27 | 7.18% and 15.3% and 22.1% and 21.14% and 13% and 34.5% and 22% and 9.14% and 7.78% | 32 days and 46 days and 48 days and 51 days and 53 days and 54 days | Body weight ([8]; day 6, in g (unit assumed)): 23.1 and 23.8 and 23.5 and 25 and 24.1 and 23.2 and 23 and 22.6 and 22 and 26.2; Body weight ([8]; day 8): 22 (2×) and 23.1 and 23.6 and 24.1 and 23.2 and 22.9 and 22.7 and 22.6 and 25.8; body weight of mice ([9]; day 20): 26 (2×) and 24.2 and 24.3 and 23.2 and 24.5 (2×) and 25.1 and 24.8 and 27 and 25.7 and 24; body weight of mice ([9]; day 23): 26.5 and 24.3 (3×) and 24.7 and 23.9 and 25.1 and 25.2 and 24.9 and 24.6 and 27.6 and 26.2; body weight of mice ([9]; day 35): 26.1 (2×) and 23.9 and 23.7 and 24.1 and 25.9 and 24.3 and 24.7 and 26.6 and 25; body weight of mice ([9]; day 42): 25.9 and 24.4 and 22.5 and 24.3 (2×) and 27 and 25.2 and 26.9 and 27.3
COc1cc2nc(-c3cc(C)oc3C)cc(NCC3CCN(c4ncc(C(=O)NO)cn4)CC3)c2cc1OC [CM-1758, 2-[4-[[[2-(2,5-dimethyl-3-furyl)-6,7-dimethoxy-4-quinolyl]amino]methyl] -1-piperidyl]pyrimidine-5-carbohydroxamic acid] | > 0.144 | 11 | 21 | 1 | 1 | 37 | do not induced DNA damage | not having observed an increase in OS | 25.4 and 23.9 (2×) and 24.4 and 22.7 (2×) and 23.8 and 21.5 and 23 and 21.9 | 24.3 and 22.3 and 23.6 and 21.6 and 21.7 (2×) and 20.7 and 21 and 21.5 and 22.6 | 24.3 and 22.6 and 23.5 and 21.5 (2×) and 22.1 and 21.4 and 21.9 and 21.7 and 22.4 | statistically significant increase in CD11b | increased overall survival | 23.7 (2×) and 23.8 and 27.9 and 26.9 and 23.2 and 22.7 and 19.6 and 22.8 and 21.9 and 22.2 and 22 | 23.6 (2×) and 23.8 and 26.5 and 26.6 and 23.2 and 23.1 and 18.9 and 21.4 and 21.2 and 21.7 | 23.1 and 23.9 and 25.7 and 26.6 and 22.3 and 22.6 (2×) and 18.6 and 21 (2×) and 22.1 | 23.5 and 22.8 and 25.9 and 26.7 and 22.3 and 22.1 (2×) and 18.3 and 21.8 and 21.3 and 17.9 | 23.4 and 24.4 (2×) and 27.2 and 26.3 and 22.9 and 18.3 and 23.1 and 22 and 22.7 | 26.3% and 16.2% and 21.1% and 11.9% and 23.1% and 11% and 20.5% | 25 days and 32 days and 46 days and 48 days and 53 days and 57 days | Body weight ([8]; day 6): 25.4 and 23 and 24.3 and 22 and 22.6 and 21.4 and 22.8 (2×) and 22.1 and 22.4; Body weight ([8]; day 8, in g (unit assumed)): 24.7 and 22.7 and 23.8 and 22.6 and 21.8 and 21.7 and 22.1 and 21.9 and 22 and 22.8; body weight of mice ([9]; day 20, in g (unit assumed)): 25 and 24.9 and 24 and 26.8 and 24.5 and 23.3 and 20.4 and 22.9 and 24.6 and 23.8 and 22.8 and 23; body weight of mice ([9]; day 23, in g (unit assumed)): 23.9 and 24.6 and 28.5 and 27.5 and 23.5 and 23 and 19.4 and 23.1 and 23.8 and 22.2 and 22.5 and 22.4; body weight of mice ([9]; day 35, in g (unit assumed)): 24 and 22.9 and 26.1 and 26.8 and 22.4 and 23.1 and 19.4 and 22.5 and 22 and 22.1; body weight of mice ([9]; day 42, in g (unit assumed)): 25.8 and 24.7 and 28.1 and 26.1 and 23.8 and 24.5 and 20.5 and 23.3; body weight of mice ([9]; day 44, in g (unit assumed)): 26 and 25.3 and 28.3
